The source made the active and inactive calls. The rule behind the calls is not given here.

The target of test [1] is T1, Quinolone resistance protein NorA (Staphylococcus aureus) (UniProt P0A0J7).
T1 sequence (whole entry): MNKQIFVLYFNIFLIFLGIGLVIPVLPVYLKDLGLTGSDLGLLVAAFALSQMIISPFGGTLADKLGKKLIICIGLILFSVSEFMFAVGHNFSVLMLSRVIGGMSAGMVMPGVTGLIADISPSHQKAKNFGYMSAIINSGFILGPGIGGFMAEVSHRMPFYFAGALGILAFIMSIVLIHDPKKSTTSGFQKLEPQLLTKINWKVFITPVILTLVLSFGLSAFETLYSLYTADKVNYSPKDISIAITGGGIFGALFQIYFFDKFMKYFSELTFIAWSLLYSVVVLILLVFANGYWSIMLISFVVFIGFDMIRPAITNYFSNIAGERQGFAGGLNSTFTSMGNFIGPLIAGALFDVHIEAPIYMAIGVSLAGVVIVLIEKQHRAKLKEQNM
As to the kind of experiment: Inhibition of NorA efflux pump in Staphylococcus aureus SA-1199B assessed as inhibition of EtBr efflux at 50 uM.

For test [2], the system named is Escherichia coli. The experiment in a line: Antimicrobial activity against Escherichia coli ATCC 25922. It is filed as functional.
Test [3] in a line: Inhibition of DNA gyrase (unknown origin) by DNA super coiling assay.
Test [4] concerns Staphylococcus epidermidis. As to the kind of experiment: Antibacterial activity against Staphylococcus epidermidis ATCC 14990. Type of test: functional.
Test [5] concerns Staphylococcus aureus. The experiment in a line: Antimicrobial activity against wild type Staphylococcus aureus ATCC 25923. Type of test: functional.
Test [6] deals with Klebsiella pneumoniae. As to the kind of experiment: Antimicrobial activity against Klebsiella pneumoniae ATCC 13833. It is filed as functional.
Test [7] concerns Enterococcus faecium. The experiment in a line: Antibacterial activity against Enterococcus faecium ATCC 19433. Type of test: functional.
The subject of test [8] is Staphylococcus aureus. As to the kind of experiment: Antimicrobial activity against norA-overexpressing Staphylococcus aureus SA-K2378. It is filed as functional.
Test [9] has as its system Enterococcus faecium. The experiment in a line: Antibacterial activity against ciprofloxacin, vancomycin-resistant Enterococcus faecium 26A23. Type of test: functional.
Test [10] relates to Staphylococcus aureus. The experiment in a line: Antimicrobial activity against methicillin-sensitive Staphylococcus aureus 21A. Type of test: functional.
Test [11] concerns Staphylococcus aureus. As to the kind of experiment: Antimicrobial activity against norA-deficient Staphylococcus aureus SA-K1902. Type of test: functional.
The subject of test [12] is Staphylococcus aureus. As to the kind of experiment: Potentiation of ciprofloxacin-induced antibacterial effect against norA-deficient Staphylococcus aureus SA-K1902 at 0.78 to 100 ug/ml by isobologram based checkerboard assay. Type of test: functional, organism-based.
Test [13] concerns Staphylococcus aureus. As to the kind of experiment: Potentiation of ciprofloxacin-induced antibacterial effect against wild type Staphylococcus aureus ATCC 25923 at 0.78 to 100 ug/ml by isobologram based checkerboard assay. It is filed as functional, organism-based.
Test [14] concerns Staphylococcus aureus. As to the kind of experiment: Antimicrobial activity against Staphylococcus aureus ATCC 25923. Type of test: functional.
The subject of test [15] is Staphylococcus aureus. The experiment in a line: Antimicrobial activity against ciprofloxacin, methicillin-resistant Staphylococcus aureus 25A. It is filed as functional.
In test [16] the test system is Enterococcus faecalis. As to the kind of experiment: Antibacterial activity against vancomycin-resistant Enterococcus faecalis 26A36. Type of test: functional.
Test [17] has as its system Proteus mirabilis. The experiment in a line: Antimicrobial activity against Proteus mirabilis CCUG 26767. Type of test: functional.
The target of test [18] is T1, Quinolone resistance protein NorA (Staphylococcus aureus). The experiment in a line: Inhibition of NorA efflux pump in norA-overexpressing Staphylococcus aureus SA-K2378 assessed as reduction in ciprofloxacin MIC at 0.78 to 100 ug/ml by isobologram based checkerboard assay.
Test [19] shares this target. As to the kind of experiment: Inhibition of NorA efflux pump in norA-overexpressing Staphylococcus aureus SA-K2378 assessed as reduction in ciprofloxacin MIC at 50 ug/ml by isobologram based checkerboard assay.
Test [20] relates to Pseudomonas aeruginosa. As to the kind of experiment: Antimicrobial activity against Pseudomonas aeruginosa ATCC 27853. It is filed as functional.
The target of test [21] is T1, Quinolone resistance protein NorA (Staphylococcus aureus). As to the kind of experiment: Inhibition of NorA efflux pump in norA-overexpressing Staphylococcus aureus SA-K2378 assessed as reduction in ciprofloxacin MIC at 12.5 ug/ml by isobologram based checkerboard assay.

`CCOC(=O)C1(C)C(=O)c2cc(N)c(N3CCN(C)CC3)cc2N(C2CC2)S1(=O)=O` (stereo unspecified): the inhibition (usually the relative decrease from the control value, in per cent) in test [1] was 25%; in test [18], “Dose-dependent effect”. The MIC (usually the lowest concentration found to suppress growth) in test [2] was greater than 128 µg/mL; in test [4], greater than 128 µg/mL; in [5] it was greater than 100 µg/mL; in test [6], greater than 128 µg/mL; in test [7], greater than 128 µg/mL; in test [8], greater than 100 µg/mL. Besides, the MIC in test [9] was greater than 128 µg/mL; in test [10], greater than 128 µg/mL; in test [11], greater than 100 µg/mL; in test [14], greater than 128 µg/mL; in test [15], greater than 128 µg/mL; in test [16], greater than 128 µg/mL. Further, the minimum inhibitory concentration (MIC) in [17] and in test [20] was greater than 128 µg/mL each time. The inhibition entry in [3] was “inactive”. Further, the outcome in [12] and in test [13] was inactive. Moreover, in test [19], the fold change (FC) was 4.

In the case of `CNC(=O)C1=C(O)c2cc(N)c(N3CCN(C)CC3)cc2N(C2CC2)S1(=O)=O`, the inhibition in test [1] was determined as 2%. Also, the MIC in test [2], in test [4], in test [6], in test [7], in test [9] and in test [10] was greater than 128 µg/mL in each case. Also, the MIC in [14], in test [15], in test [16], in test [17] and in test [20] was greater than 128 µg/mL each time. Further, in test [3], the inhibition result is “inactive”.

Take `CN1CCN(c2cc3c(cc2N)C(=O)CS(=O)(=O)N3C2CC2)CC1`: in test [1], the inhibition was determined as 7%. The MIC in test [2], in test [4], in [6], in test [7], in test [9] and in test [10] was greater than 128 µg/mL in each case. The MIC in test [14], in test [15], in [16], in test [17] and in test [20] was greater than 128 µg/mL in each case. The inhibition result in test [3] was “inactive”.

In the case of `CCOC(=O)C1=C(O)c2cc(N)c(N3CCN(C)CC3)cc2N(C2CC2)S1(=O)=O`, the inhibition in [1] is 0%. For the same molecule, the MIC in [2], in test [4], in test [6], in [7], in test [9] and in test [10] was greater than 128 µg/mL throughout. In addition, the MIC in test [14], in test [15], in [16], in test [17] and in test [20] was greater than 128 µg/mL throughout. Also, the inhibition result in test [3] was “inactive”.

On to `COC(=O)[C@H]1[C@H]2C[C@@H]3c4[nH]c5cc(OC)ccc5c4CCN3C[C@H]2C[C@@H](OC(=O)c2cc(OC)c(OC)c(OC)c2)[C@@H]1OC` [RESERPINE], for which the MIC in test [5], in test [8] and in [11] was greater than 100 µg/mL each time. Also, the outcome in [12] and in test [13] was inactive. Also, in test [18], the inhibition result is “Active”.

On to `CC1C(=O)c2cc(N)c(N3CCN(C)CC3)cc2N(C2CC2)S1(=O)=O` (stereo unspecified), for which the inhibition is 27% in test [1] and “Dose-dependent effect” in test [18]. Further, the MIC in [2] was greater than 128 µg/mL; in [4], greater than 128 µg/mL; in [5], greater than 100 µg/mL; in test [6] it was greater than 128 µg/mL; in [7], greater than 128 µg/mL; in [8] it was greater than 100 µg/mL. Further, the MIC in [9] is greater than 128 µg/mL; in test [10], greater than 128 µg/mL; in test [11], greater than 100 µg/mL; in test [14] it was greater than 128 µg/mL; in test [15], greater than 128 µg/mL; in test [16], greater than 128 µg/mL. Moreover, the minimal inhibitory concentration (MIC) in test [17] and in [20] was greater than 128 µg/mL each time. Also, the inhibition entry in test [3] was “inactive”. Also, the result in test [12] and in test [13] was inactive. Moreover, in test [21], the fold change (FC) turned out to be 4.

Take `Fc1ccc([C@@H]2CCNC[C@H]2COc2ccc3c(c2)OCO3)cc1` [PAROXETINE]: the minimum inhibitory concentration (MIC) in [5], in test [8] and in test [11] was greater than 100 µg/mL each time. Besides, the outcome in test [12] and in test [13] was inactive. In [18], the inhibition result was “Active”.
